Common to all, as to format: biochemical
In one experiment the target is T1, recombinant human DPP7 (Homo sapiens, UniProt Q9UHL4).
T1 construct: purchased R&D Systems
Briefly: DPP7 inhibition, fluorogenic substrate Lys-Pro-AMC. Particulars: recombinant human DPP7. In a few lines:
(§1)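 Inhibitors are titrated in an 8-point series into the enzyme's assay buffer (DMSO no more than 0.5%). Substrate cleavage at 25 °C is followed by fluorescence, excitation 380 nm and emission 460 nm. IC50 values come from a four-variable logistic model.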

The target in a further experiment is T2, recombinant human DPP9 (Homo sapiens, UniProt Q86TI2).
T2 construct: purchased R&D Systems
T2 sequence (Q86TI2 whole entry): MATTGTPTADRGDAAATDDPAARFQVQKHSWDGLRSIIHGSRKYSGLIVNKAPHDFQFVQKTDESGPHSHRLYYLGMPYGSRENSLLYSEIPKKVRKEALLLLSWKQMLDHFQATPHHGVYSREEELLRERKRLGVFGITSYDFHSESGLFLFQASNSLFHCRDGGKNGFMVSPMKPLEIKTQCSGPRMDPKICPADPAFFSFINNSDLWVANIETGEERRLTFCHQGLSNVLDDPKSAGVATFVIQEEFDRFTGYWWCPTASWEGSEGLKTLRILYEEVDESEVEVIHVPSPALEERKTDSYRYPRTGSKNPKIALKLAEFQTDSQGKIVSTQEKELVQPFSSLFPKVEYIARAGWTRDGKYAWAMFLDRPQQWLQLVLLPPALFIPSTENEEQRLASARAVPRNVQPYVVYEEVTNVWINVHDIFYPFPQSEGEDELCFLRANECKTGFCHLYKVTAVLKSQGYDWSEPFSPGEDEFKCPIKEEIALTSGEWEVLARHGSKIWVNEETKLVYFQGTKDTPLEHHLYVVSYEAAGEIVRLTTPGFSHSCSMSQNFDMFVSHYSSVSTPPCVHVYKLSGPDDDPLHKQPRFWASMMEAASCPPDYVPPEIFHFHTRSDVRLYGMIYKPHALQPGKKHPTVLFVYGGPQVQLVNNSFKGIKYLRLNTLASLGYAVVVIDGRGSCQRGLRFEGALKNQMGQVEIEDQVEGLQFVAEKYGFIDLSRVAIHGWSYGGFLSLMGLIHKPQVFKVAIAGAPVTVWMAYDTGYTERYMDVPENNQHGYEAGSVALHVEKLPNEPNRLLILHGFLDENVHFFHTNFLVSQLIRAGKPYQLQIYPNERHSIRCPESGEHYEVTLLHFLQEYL
As to the kind of experiment: DPP9 inhibition, fluorogenic substrate H-Gly-Pro-AMC. Particulars: recombinant human DPP9. Summed up: as §1

The next experiment addresses T3, recombinant human PREP (Homo sapiens, UniProt P48147).
T3 construct: purchased R&D System
T3 sequence (P48147 1-710): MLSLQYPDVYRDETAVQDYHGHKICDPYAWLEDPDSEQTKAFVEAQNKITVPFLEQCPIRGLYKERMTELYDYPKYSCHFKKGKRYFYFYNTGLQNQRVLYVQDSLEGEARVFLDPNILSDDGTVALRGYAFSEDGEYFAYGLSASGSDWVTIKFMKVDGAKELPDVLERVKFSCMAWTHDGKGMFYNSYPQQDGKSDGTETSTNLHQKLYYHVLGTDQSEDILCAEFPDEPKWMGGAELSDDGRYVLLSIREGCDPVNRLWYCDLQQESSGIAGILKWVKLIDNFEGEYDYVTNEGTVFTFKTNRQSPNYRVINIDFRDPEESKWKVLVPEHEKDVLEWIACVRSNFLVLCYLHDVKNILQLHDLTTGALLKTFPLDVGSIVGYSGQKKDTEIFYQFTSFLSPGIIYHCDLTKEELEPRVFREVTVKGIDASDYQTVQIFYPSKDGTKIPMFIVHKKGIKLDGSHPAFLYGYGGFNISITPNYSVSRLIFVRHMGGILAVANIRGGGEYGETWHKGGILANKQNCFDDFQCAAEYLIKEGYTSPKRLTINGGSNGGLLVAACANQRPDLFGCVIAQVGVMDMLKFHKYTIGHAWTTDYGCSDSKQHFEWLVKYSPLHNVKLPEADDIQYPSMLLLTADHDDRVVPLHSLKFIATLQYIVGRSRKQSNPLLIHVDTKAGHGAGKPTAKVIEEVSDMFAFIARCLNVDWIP
Briefly: PREP inhibition, fluorogenic substrate Z-Gly-Pro-AMC. The following applies: Inhibitory Activity (IC50, nM) PREP, recombinant human PREP. Summed up:
as §1

The target of a further experiment is T4, Recombinant human FAP (Homo sapiens, UniProt Q12884).
T4 construct: purchased R&D systems
T4 sequence (Q12884 1-760): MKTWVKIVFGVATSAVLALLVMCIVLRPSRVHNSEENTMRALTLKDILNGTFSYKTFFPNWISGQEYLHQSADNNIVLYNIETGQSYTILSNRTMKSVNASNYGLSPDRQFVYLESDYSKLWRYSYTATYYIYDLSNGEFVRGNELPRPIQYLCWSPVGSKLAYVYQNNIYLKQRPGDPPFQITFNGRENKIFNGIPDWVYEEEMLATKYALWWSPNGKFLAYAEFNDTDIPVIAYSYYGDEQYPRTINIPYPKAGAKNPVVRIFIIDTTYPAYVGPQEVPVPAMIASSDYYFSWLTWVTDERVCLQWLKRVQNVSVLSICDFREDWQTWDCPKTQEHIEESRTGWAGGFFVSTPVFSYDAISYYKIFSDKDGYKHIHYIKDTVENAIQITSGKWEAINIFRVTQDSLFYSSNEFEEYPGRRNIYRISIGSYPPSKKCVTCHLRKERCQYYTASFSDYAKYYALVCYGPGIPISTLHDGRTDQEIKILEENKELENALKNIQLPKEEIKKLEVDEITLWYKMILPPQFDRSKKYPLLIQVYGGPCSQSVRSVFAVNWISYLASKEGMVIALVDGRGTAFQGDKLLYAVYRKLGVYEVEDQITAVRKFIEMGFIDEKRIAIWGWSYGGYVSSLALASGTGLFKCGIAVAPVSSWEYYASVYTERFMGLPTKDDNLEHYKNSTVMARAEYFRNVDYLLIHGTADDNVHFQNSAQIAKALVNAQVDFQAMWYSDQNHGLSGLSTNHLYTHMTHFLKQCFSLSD
Briefly: FAP FRET assay, FGF21-sequence FRET peptide substrate. The following applies: FRET peptide with human FGF21 sequence, 6 μM, 37° C. Summed up:
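FRET peptide bearing human FGF21 sequence (6 μM final) cleaved by 10 ng recombinant human FAP at 37° C in HEPES pH 7.2 buffer with NaCl, BSA and EDTA, DMSO up to 0.1%. Signal-rate decrease versus uninhibited control fitted to a four-variable logistic model for IC50.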

For another experiment, the target named is DPP4 (Homo sapiens, UniProt P27487). As to the kind of experiment: DPP4 inhibition, fluorogenic substrate H-Gly-Pro-AMC. Particulars: recombinant human DPP4. Set-up: purchased R&D Systems.
Chain of DPP4 (P27487 whole entry): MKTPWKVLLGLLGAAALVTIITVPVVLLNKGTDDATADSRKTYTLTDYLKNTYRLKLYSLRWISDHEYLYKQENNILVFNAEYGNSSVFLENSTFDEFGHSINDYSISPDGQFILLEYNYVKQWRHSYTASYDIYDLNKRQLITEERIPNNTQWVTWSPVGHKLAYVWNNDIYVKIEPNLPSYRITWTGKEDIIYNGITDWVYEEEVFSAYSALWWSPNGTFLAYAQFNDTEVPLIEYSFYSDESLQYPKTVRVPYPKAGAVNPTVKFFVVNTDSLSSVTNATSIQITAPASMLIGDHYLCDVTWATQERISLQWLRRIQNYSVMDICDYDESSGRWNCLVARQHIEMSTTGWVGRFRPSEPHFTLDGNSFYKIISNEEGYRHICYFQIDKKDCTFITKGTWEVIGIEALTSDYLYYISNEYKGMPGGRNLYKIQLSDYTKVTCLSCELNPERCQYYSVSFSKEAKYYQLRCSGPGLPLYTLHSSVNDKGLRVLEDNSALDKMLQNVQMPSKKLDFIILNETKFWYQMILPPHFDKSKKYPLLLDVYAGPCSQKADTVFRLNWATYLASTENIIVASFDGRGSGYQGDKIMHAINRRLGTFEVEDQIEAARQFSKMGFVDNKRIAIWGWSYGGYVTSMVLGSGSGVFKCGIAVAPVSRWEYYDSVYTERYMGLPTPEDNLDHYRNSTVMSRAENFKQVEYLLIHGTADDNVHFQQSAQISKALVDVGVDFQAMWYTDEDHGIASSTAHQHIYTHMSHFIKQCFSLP

For orientation: IC50 means the concentration at which inhibition is half-maximal. On to `CCN(c1cnc2ccccc2c1)C1CCN(CC(=O)N2C[C@@H](F)C[C@H]2C#N)CC1` [Example 304, (2S,4S)-1-[2-[4-[ethyl(3-quinolyl)amino]-1-piperidyl]acetyl]-4-fluoro-pyrrolidine-2-carbonitrile], for which the IC50 on recombinant human DPP7 is 1.05 µM; on recombinant human DPP9, 7.6 µM; at recombinant human PREP it was 117 nM; at Recombinant human FAP it was 0.008 µM; on DPP4, 18.8 µM.
Consider `CN(Cc1ccccc1)C(=O)c1ccc(N[C@H]2CCN(CC(=O)N3C[C@@H](F)C[C@H]3C#N)C2)c2cccnc12` [Example 285, N-benzyl-N-methyl-5-[[(3S)-1-[2-oxo-2-[(2S,4S)-2-cyano-4-fluoro-pyrrolidin-1-yl]ethyl]pyrrolidin-3-yl]amino]quinoline-8-carboxamide], for which the IC50 was determined as 0.333 µM on recombinant human DPP7; 1.08 µM at recombinant human DPP9; 2450 nM on recombinant human PREP; 0.0039 µM on Recombinant human FAP; 2.5 µM at DPP4.
Turning to `CN(c1ccc(OC(F)(F)F)c2ncccc12)[C@H]1CCN(CC(=O)N2C[C@@H](F)C[C@H]2C#N)C1` [Example 160, (2S,4S)-4-fluoro-1-[2-[(3S)-3-[methyl-[8-(trifluoromethoxy)-5-quinolyl]amino]pyrrolidin-1-yl]acetyl]pyrrolidine-2-carbonitrile], the half-inhibitory concentration (IC50) turned out to be 0.0778 µM at recombinant human DPP7; 2.82 µM on recombinant human DPP9; 1080 nM at recombinant human PREP; 0.0049 µM at Recombinant human FAP; 1.78 µM on DPP4.
On to `N#C[C@@H]1C[C@H](F)CN1C(=O)CN1CC[C@@H](Nc2cc(F)cc3ncccc23)C1` [Example 174, (2S,4S)-4-fluoro-1-[2-[(3R)-3-[(7-fluoro-5-quinolyl)amino]pyrrolidin-1-yl]acetyl]pyrrolidine-2-carbonitrile], for which the half-maximal inhibitory concentration (IC50) on recombinant human DPP7 is 0.846 µM; at recombinant human DPP9, 1.99 µM; at recombinant human PREP, 2440 nM; on Recombinant human FAP, 0.0026 µM; on DPP4, 3.02 µM.
For the compound `N#C[C@@H]1C[C@H](F)CN1C(=O)CN1CC[C@H](Nc2ccc(O)c3ncccc23)C1` [Example 276, (2S,4S)-4-fluoro-1-[2-[(3S)-3-[(8-hydroxy-5-quinolyl)amino]pyrrolidin-1-yl]acetyl]pyrrolidine-2-carbonitrile], the IC50 was found to be 3.49 µM on recombinant human DPP7; 5.33 µM on recombinant human DPP9; 3030 nM at recombinant human PREP; 0.014 µM at Recombinant human FAP; 0.977 µM at DPP4.
For the compound `N#C[C@@H]1C[C@H](F)CN1C(=O)CN1CC[C@@H](Nc2ccc(OC(F)(F)F)c3ncccc23)C1` [Example 186, (2S,4S)-4-fluoro-1-[2-[(3R)-3-[[8-(trifluoromethoxy)-5-quinolyl]amino]pyrrolidin-1-yl]acetyl]pyrrolidine-2-carbonitrile], the half-maximal inhibitory concentration (IC50) on recombinant human DPP7 is 2.02 µM; on recombinant human DPP9, 4.41 µM; on recombinant human PREP, 3590 nM; on Recombinant human FAP, 0.0027 µM; on DPP4, 2.22 µM.
As to `N#C[C@@H]1C[C@H](F)CN1C(=O)CN1CC[C@H](Nc2cc(C(F)(F)F)c3ncccc3c2)C1` [Example 280, (2S,4S)-4-fluoro-1-[2-[(3S)-3-[[8-(trifluoromethyl)-6-quinolyl]amino]pyrrolidin-1-yl]acetyl]pyrrolidine-2-carbonitrile], the IC50 at recombinant human DPP7 was 0.184 µM; on recombinant human DPP9 it was 0.674 µM; at recombinant human PREP, 970 nM; on Recombinant human FAP, 0.0021 µM; at DPP4 it was 0.839 µM.
Taken in the same sequence, the figures for `CC(=O)Nc1ccc(N[C@H]2CCN(CC(=O)N3CCC[C@H]3C#N)C2)c2cccnc12` [Example 296, N-[5-[[(3S)-1-[2-oxo-2-[(2S)-2-cyanopyrrolidin-1-yl]ethyl]pyrrolidin-3-yl]amino]-8-quinolyl]acetamide] were 0.142 µM, 10.6 µM, 6440 nM, 0.0047 µM and 15.6 µM.
As for `CN(Cc1ccccc1)C(=O)c1ccc(N[C@H]2CCN(CC(=O)N3CCC[C@H]3C#N)C2)c2cccnc12` [Example 288, N-benzyl-N-methyl-5-[[(3S)-1-[2-oxo-2-[(2S)-2-cyanopyrrolidin-1-yl]ethyl]pyrrolidin-3-yl]amino]quinoline-8-carboxamide], the half-maximal inhibitory concentration (IC50) on recombinant human DPP7 came to 0.677 µM; on recombinant human DPP9, 1.21 µM; on recombinant human PREP, 11400 nM; at Recombinant human FAP it was 0.014 µM; at DPP4, 18.5 µM.
On to `N#C[C@@H]1C[C@H](F)CN1C(=O)CN1CC[C@@H](Nc2c(F)ccc3ncccc23)C1` [Example 173, (2S,4S)-4-fluoro-1-[2-[(3R)-3-[(6-fluoro-5-quinolyl)amino]pyrrolidin-1-yl]acetyl]pyrrolidine-2-carbonitrile], for which the IC50 on recombinant human DPP7 came out at 11.1 µM; on recombinant human DPP9, 2.95 µM; at recombinant human PREP, 1870 nM; at Recombinant human FAP, 0.0053 µM; at DPP4, 1.12 µM.
With `N#C[C@@H]1C[C@H](F)CN1C(=O)CN1CC[C@@H](Nc2cc(F)c3ncccc3c2)C1` [Example 214, (2S,4S)-4-fluoro-1-[2-[(3R)-3-[(8-fluoro-6-quinolyl)amino]pyrrolidin-1-yl]acetyl]pyrrolidine-2-carbonitrile], the IC50 on recombinant human DPP7 was 0.764 µM; at recombinant human DPP9 it was 0.97 µM; at recombinant human PREP, 3030 nM; at Recombinant human FAP it was 0.0038 µM; on DPP4, 1.29 µM.
For `Cc1ccc(N[C@@H]2CCN(CC(=O)N3CCC[C@H]3C#N)C2)c2cccnc12` [Example 200, (2S)-1-[2-[(3R)-3-[(8-methyl-5-quinolyl)amino]pyrrolidin-1-yl]acetyl]pyrrolidine-2-carbonitrile], in that order: 1.7 µM, 27.3 µM, 6090 nM, 0.0063 µM and 5.51 µM.
Consider `N#C[C@@H]1C[C@H](F)CN1C(=O)CN1CC[C@@H](Nc2cnc3nc(Cl)ccc3c2)C1` [Example 172, (2S,4S)-4-fluoro-1-[2-[(3R)-3-[(7-chloro-1,8-naphthyridin-3-yl)amino]pyrrolidin-1-yl]acetyl]pyrrolidine-2-carbonitrile], for which the IC50 at recombinant human DPP7 was 4.9 µM; on recombinant human DPP9 it was 5.4 µM; on recombinant human PREP, 4240 nM; on Recombinant human FAP, 0.0093 µM; on DPP4, 1.87 µM.
Regarding `N#C[C@@H]1CCCN1C(=O)CN1CC[C@H](Nc2ccc(C(=O)Nc3cccnc3)c3ncccc23)C1` [Example 290, N-(3-pyridyl)-5-[[(3S)-1-[2-oxo-2-[(2S)-2-cyanopyrrolidin-1-yl]ethyl]pyrrolidin-3-yl]amino]quinoline-8-carboxamide], the IC50 was found to be 0.121 µM at recombinant human DPP7; 0.567 µM on recombinant human DPP9; 429 nM at recombinant human PREP; 0.0011 µM at Recombinant human FAP; 0.926 µM at DPP4.

The values above are taken from patent US11655235B2, “Pyrrolidine and piperidine compounds” (YUHAN CORPORATION, priority 2019, dated 2023).
